Key:
Assay type in all cases: cell-based, human
YY1 promoter = YY1 promoter luciferase reporter assay in restimulated T cells; conditions: after four stimulations, continued presence of inhibitor; FIG. 5C upper
Experimental: Human YY1 promoter luciferase construct YY1-pGLuc-basic was a kind gift from Dr. Guangchao Sui of Wake Forest Health Sciences, NC (Huang et al., 2012 Nucleic Acids Res 40, 1033-1049). The cJun/ATF2 octameric palindrome cyclic AMP-response element (CRE), 5′-[…]-3′(SEQ ID NO: 40), was mutated to 5′-cGgCaTaA-3′ (SEQ ID NO: 41) using the service of GenScript Inc. (Item cat. 426354-1).
The reporter assays and plasmid overexpression were performed in 6 well tissue culture plates. 5×10^6 T cells were transfected with plasmids using Amaxa human T cell nucleofector Kit, cat. VPA-1002 (Lonza). Transfections were performed using Amaxa nucleofector II device, program no. T-023/T-020. Luciferase assays were generally performed 48 hours after transfections. […] The YY1 promoter luciferase assay was measured from T cell culture supernatants using BioLux Gaussia lucferase assay kit (New England Biolabs, cat. no. E3300S). Amounts of transfected plasmids were kept proportionally constant. Samples were assayed for reporter activity using a Gloma 20/20 Luminometer (Promega), essentially using the recommended parameters provided by the reagent suppliers.
In experiments using p38MAPK, JNK, MEK1 and Ezh2 inhibitors, cells were grown in the continued presence of inhibitors. After each wash and activation step, cells were treated with a fresh batch of inhibitors. […]

[1] = test system: phospho-ATF2, phospho-cJun and phospho-ERK; assay: Kinase activities by western blot (inhibitor specificity); conditions: respectively, westerns, FIG. 18A
Experimental: (§1) In experiments using p38MAPK, JNK, MEK1 and Ezh2 inhibitors, cells were grown in the continued presence of inhibitors. After each wash and activation step, cells were treated with a fresh batch of inhibitors. The following inhibitors were used: MAPKp38-SB202190 (10 μmol/ml) (Sigma, cat. S7067), JNK-SP600125 (10 μmol/ml) (Sigma, cat. S5567), MEK1-PD98059 (5 μmol/ml) (Calbiochem, cat. 513001), MEK1/2-inhibitor III (5 μmol/ml) (Calbiochem, cat. 444966) and Ezh2-[…] (10 nmol) (Millipore, cat. 505052). DMSO was used as a mock treatment. The specificity of p38MAPK, JNK and MEK1 inhibitors to block the downstream kinases, phospho-ATF2, phospho-cJun and phospho-ERK, respectively, was confirmed by westerns (FIG. 18A).
(§2) For denaturing westerns, 20-40 μg of protein extracted from T cells was used. RIPA lysis buffer (Sigma, cat. R0278) was used to prepare whole cell extracts. For native gel analysis, cells were lysed in native lysis buffer (50 mM Tris-Cl, pH 8.0; 1% NP40; 150 mM NaCl, 100 μg leupeptin, 1 mM PMSF, 5 mM orthovanadate). For both native and denaturating conditions, samples were resolved on 4-15% TGX precast gels (Bio-Rad, cat. 456-1084) with the difference in running buffer. Native samples were run without SDS. […]

CD4 T cells = assay: IL2 ELISA, T cells repeatedly stimulated with anti-CD3/CD28 beads (in vitro exhaustion model); conditions: T cells continuously with Ezh2 inhibitor (10 nmol), after the 4th stimulation
Experimental: as §1
(§3) ELISA assays were performed using human IL2 and IFNγ Ready-SET-Go kits (eBioscience). Three replicates were included for each experimental set and each experiment was repeated three or more times. ELISA was performed on the supernatant saved from each stimulation step. CD4+ or CD8+ T cells were stimulated with anti-CD3/CD28 beads and cultured for 48 hours, after which cells were spun down and supernatants carefully removed and saved at −20° C. The same procedure was followed for the rest of the stimulation steps.
Human T cell isolation and culture in vitro. […] 48 hours after the first stimulation, cells were counted and washed, and beads were removed using a magnet. […]

H3-K27 trimethylation = assay: Western blot for H3K27me3 in repeatedly stimulated T cells; conditions: inhibitor maintained in activation cultures; FIG. 2D
Experimental: as §1, §2

[2] = test system: H3-K27 trimethylation of the IL2 promoter; assay: ChIP with anti-H3K27me3 antibody and qPCR for IL2 promoter; conditions: repeatedly stimulated CD4 T cells; FIG. 2E
Experimental: Chromatin immunoprecipitation assay. The ChIP assay was performed using a ChIP-IT high sensitivity kit (Active Motif, cat. 53040), following the manufacturer's recommended protocol. Human CD4+ T cells were repeatedly activated with CD3/CD28 beads in the continued presence of Ezh2 inhibitor or transfected with YY1 shRNA and a control after 2nd stimulation. Approximately 15 μg of chromatin was used in each reaction with an antibody that specifically recognizes H3K27me3 (Active Motif, cat. 39155). Fold enrichment was calculated relative to IgG and input.

T cells = assay: IFNγ ELISA, repeatedly stimulated T cells; conditions: FIG. 16
Experimental: as §3
Human T cell isolation and culture in vitro. CD4+ and CD8+ T cells were enriched from peripheral blood mononuclear cells obtained from healthy donors. Leukoreduction filters from Boston Children's Hospital that were processed using histopaque (Sigma) cushions to separate PBMCs were used. Human CD8+ and CD4+ cells were enriched using naïve CD8 and CD4 T cell enrichment cocktail (BD Biosciences, cat. 51-900481 and 9002314, respectively). […] Cells were stimulated the same day with T-Activator CD3/CD28 dynabeads (Life Technologies, cat. 11131D) following the manufacturer's recommendations. 48 hours after the first stimulation, cells were counted and washed, and beads were removed using a magnet. This was followed by a second, third and fourth round of stimulations with fresh batches of CD3/CD28 beads. […]

CEA-CAR T cells = assay: IL2 ELISA in MIPCEA/CAR-T cell cocultures; conditions: 2nd generation CAR-T, MIPCEA cocultures; Ezh2 inhibitor 10 nm or nivolumab 20 μg/ml
Experimental: as §3
To produce second generation CEA-CAR T cells, T cells were modified by retroviral gene therapy to express a single chain antibody domain (sFv) that recognizes CEA tumor antigen. This anti-CEA binding domain is fused together with the full length sequence of CD28 co-stimulatory molecule and sequences of the signaling chain of the CD3 complex (signal 1+2) (FIG. 6A) (Nolan et al., 1999). The clinical grade CEA-CAR vector producing cells have been successfully tested in a number of in vitro studies as well as in a clinical setting to modify T cells for breast cancer clinical trials (Katz et al., 2015). […]
MIP101 and MIPCEA, tumor cell coculture with CEA-CAR modified T cells. […] Each time after the coculture, tumor cells were trypsinized (cellgro) and counted.

MIPCEA cells = conditions: by the 3rd co-culture; Ezh2 inhibitor 10 nm
Excerpt: To produce second generation CEA-CAR T cells, T cells were modified by retroviral gene therapy to express a single chain antibody domain (sFv) that recognizes CEA tumor antigen. This anti-CEA binding domain is fused together with the full length sequence of CD28 co-stimulatory molecule and sequences of the signaling chain of the CD3 complex (signal 1+2) (FIG. 6A) (Nolan et al., 1999). The clinical grade CEA-CAR vector producing cells have been successfully tested in a number of in vitro studies as well as in a clinical setting to modify T cells for breast cancer clinical trials (Katz et al., 2015). The first generation CEA-CAR contains anti-CEA binding domain fused with signaling chain (signal 1) (Nolan et al., 1999 Clin Cancer Res 5, 3928-3941). Transduction of T cells with anti CEA-CAR vector were as previously described (Beaudoin et al., 2008 Nat Med 9, 540-547).
MIP101 and MIPCEA, tumor cell coculture with CEA-CAR modified T cells. MIP101 is a CEA-undifferentiated human carcinoma cell line derived from liver metastases of colonic adenocarcinoma patients. The MIPCEA cell line was generated by stably expressing the full length CEA gene in MIP101 cells (Thomas et al., 1995 Cancer Lett 92, 59-66). […] Each time after the coculture, tumor cells were trypsinized (cellgro) and counted.

YY1 = assay: Western blot of YY1 protein in T cells grown with kinase inhibitors; conditions: same cells as reporter assay; FIG. 5C lower
Experimental: as §1, §2

Q: For `COc1cccc(-c2cc(=O)c3ccccc3o2)c1N` [MEK1 inhibitor, PD98059], which “YY1 luciferase reporter transcriptional activity” value (YY1 promoter) is on record?
A: no impact

Q: And the “specificity to block the downstream kinases” value [1]?
A: confirmed

Q: With `CCCc1cc(C)[nH]c(=O)c1CNC(=O)c1cc(-c2ccc(N3CCN(C(C)C)CC3)nc2)cc2c1cnn2C(C)C` [Ezh2 inhibitor] as the compound, how does the “IL2 exceeding that of control T cells by a factor” value (CD4 T cells) read?
A: > 40

Q: And the “H3-K27 trimethylation by western” value (H3-K27 trimethylation)?
A: suppressed

Q: And the “H3-K27 trimethylation of the IL2 promoter by ChIP/qPCR” value [2]?
A: suppressed

Q: What about the “IFNγ shutdown after repeated T cell stimulation” value (T cells) of the same compound?
A: does not protect

Q: And the “IL2 production of CAR-T cells on repeated exposure to tumor cells” value (CEA-CAR T cells)?
A: sustained IL2

Q: What about the “net benefit in killing versus untreated CAR-T cells” value (MIPCEA cells) of the same compound?
A: 5 fold

Q: How did the “YY1 luciferase reporter transcriptional activity” value (YY1 promoter) turn out when `Oc1ccc(-c2nc(-c3ccncc3)c(-c3ccc(F)cc3)[nH]2)cc1` [p38MAPK inhibitor, SB202190] was run?
A: suppressed

Q: And the “YY1 protein by Western blot” value (YY1)?
A: suppressed

Q: What about the “specificity to block the downstream kinases” value [1] of the same compound?
A: confirmed

Q: With nivolumab as the compound, how does the “IL2 production of CAR-T cells on repeated exposure to tumor cells” value (CEA-CAR T cells) read?
A: same IL2 loss as control T cells
